{"source": "patent US20090305955A1", "about": "“Cyclopeptide with Anti-Cancer Activity Derived from Collagen Type IV” (priority 2006, published 2009)", "origin": "cited, not measured here", "key": {"[1]": {"test_system": "various cancer cell lines", "details": "Han J et al; Shahan S et al; cited from earlier work"}, "[2]": {"test_system": "melanoma or fibrosarcoma cells", "details": "Pasco S et al, 2000a; cited from earlier work"}, "[3]": {"target": "T1, αVβ3 integrin-CD47 protein complex (Homo sapiens, UniProt P05106)", "T1 construct": "αVβ3 integrin-CD47 protein complex present on the surface of melanoma cells", "T1 sequence (P05106 27-788)": "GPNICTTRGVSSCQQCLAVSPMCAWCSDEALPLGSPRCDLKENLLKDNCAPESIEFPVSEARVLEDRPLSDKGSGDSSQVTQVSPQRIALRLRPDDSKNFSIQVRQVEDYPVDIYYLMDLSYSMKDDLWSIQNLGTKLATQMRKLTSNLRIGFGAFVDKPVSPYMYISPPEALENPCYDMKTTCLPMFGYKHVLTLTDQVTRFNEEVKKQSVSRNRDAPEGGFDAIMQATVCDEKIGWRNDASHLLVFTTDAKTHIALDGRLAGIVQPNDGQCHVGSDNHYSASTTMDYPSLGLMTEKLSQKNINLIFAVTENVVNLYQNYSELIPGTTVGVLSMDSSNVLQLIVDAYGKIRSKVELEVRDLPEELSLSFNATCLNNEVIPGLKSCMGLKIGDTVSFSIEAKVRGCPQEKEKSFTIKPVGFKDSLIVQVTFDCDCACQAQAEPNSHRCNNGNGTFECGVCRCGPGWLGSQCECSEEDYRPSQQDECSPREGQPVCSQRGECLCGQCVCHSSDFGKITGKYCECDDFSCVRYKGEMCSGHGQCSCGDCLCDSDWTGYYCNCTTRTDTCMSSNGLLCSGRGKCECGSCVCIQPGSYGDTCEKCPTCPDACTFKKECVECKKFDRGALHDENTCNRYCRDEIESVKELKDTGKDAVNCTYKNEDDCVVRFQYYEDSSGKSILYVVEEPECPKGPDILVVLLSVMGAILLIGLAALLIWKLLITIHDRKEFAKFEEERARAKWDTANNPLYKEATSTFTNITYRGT", "T1 sequence (P06756 31-889 partner limits assumed)": "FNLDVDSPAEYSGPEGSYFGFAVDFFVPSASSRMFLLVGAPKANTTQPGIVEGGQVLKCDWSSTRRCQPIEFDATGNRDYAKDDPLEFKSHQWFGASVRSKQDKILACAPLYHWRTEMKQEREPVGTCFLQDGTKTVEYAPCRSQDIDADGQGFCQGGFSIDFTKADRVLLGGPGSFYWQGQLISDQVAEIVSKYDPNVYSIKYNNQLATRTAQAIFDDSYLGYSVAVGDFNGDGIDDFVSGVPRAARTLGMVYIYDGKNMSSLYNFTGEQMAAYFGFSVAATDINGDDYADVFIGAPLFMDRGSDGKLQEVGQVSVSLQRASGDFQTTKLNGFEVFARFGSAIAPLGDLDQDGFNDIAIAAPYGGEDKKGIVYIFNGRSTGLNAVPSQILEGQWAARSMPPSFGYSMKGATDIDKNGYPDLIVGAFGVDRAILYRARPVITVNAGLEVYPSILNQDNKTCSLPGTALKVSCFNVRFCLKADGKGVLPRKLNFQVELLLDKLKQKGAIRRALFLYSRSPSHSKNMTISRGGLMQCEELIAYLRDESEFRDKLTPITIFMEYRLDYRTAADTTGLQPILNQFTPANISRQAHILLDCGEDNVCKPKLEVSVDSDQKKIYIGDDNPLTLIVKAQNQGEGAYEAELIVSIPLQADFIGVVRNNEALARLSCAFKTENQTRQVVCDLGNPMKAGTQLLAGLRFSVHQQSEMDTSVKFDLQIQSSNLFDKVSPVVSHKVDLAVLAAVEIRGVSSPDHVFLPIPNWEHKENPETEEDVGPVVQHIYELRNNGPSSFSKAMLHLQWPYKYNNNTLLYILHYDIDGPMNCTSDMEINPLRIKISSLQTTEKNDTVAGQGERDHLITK", "T1 sequence (P06756 891-1048 partner limits assumed)": "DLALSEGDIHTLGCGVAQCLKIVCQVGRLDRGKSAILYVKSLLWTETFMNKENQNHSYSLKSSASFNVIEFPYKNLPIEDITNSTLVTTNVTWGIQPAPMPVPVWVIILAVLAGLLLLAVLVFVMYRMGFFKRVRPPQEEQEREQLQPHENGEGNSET", "T1 sequence (Q08722 19-323 partner)": "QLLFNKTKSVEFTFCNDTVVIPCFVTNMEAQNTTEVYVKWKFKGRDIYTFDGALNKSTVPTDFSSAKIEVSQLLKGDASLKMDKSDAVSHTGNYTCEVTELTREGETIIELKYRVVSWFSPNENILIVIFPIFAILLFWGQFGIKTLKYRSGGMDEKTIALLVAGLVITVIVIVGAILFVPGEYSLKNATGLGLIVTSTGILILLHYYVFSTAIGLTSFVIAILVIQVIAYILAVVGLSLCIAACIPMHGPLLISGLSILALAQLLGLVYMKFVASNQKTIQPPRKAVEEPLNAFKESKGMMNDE", "details": "Shahan T A et al; cited from earlier work"}, "[4]": {"test_system": "murine melanoma B16F1 cells", "details": "cells pre-incubated with peptide, injected into C57BL6 syngenic mice; Floquet et al; cited from earlier work"}, "[5]": {"test_system": "angiogenesis", "details": "Pasco S et al, 2005; cited from earlier work"}}}
{"sequence": "CNYYSNSYSFWLASLNPER (Chemically synthesized NC1 alpha3 (IV) 185-203) [[NC1 α3(IV) 185-203], peptide constituted by amino acids 185 to 203 of the NC1 α3(IV) domain of type IV collagen]", "values": [{"measurement": "proliferation of various cancer cell lines", "setting": "[1]", "value": "may inhibit the proliferation"}, {"measurement": "migration of melanoma or fibrosarcoma cells in vitro", "setting": "[2]", "value": "inhibit the migration"}, {"measurement": "binding to the αVβ3 integrin-CD47 protein complex on the surface of melanoma cells", "setting": "[3]", "value": "binds"}, {"measurement": "tumoral growth of murine melanoma B16F1 cells", "setting": "[4]", "value": "inhibits the tumoral growth"}, {"measurement": "angiogenesis in vitro and in vivo", "setting": "[5]", "value": "capable of inhibiting angiogenesis"}]}
